Reference: patent US5179082A, “Method for blocking platelet adhesion to collagen” (Merck & Co., Inc., priority 1991, dated 1993)
Like-named read-outs stand apart in the source and are kept apart here. Positions of bridges follow the written chain, without caps; N, C: chain ends. No end group written: not given here.

Experiments:
[1] = tested on: platelet adhesion to collagen; test: Inhibition of platelet adhesion to collagen-coated microtiter wells; assay type: cell-based
Procedure: (§1) Polystyrene 96-well microtiter plates (Costar, Cambridge, MA) are coated with […] per well of […] collagen dissolved in 5 mM acetic acid for 1 hour at room temperature followed by blocking of the non-specific cell binding sites by addition of […] of 10 mg/ml heat-denatured BSA for 1 hour. Control wells are coated with BSA only. The wells are rinsed three times with HEPES buffered saline (HBS) containing 20 mM HEPES, pH 7.4, 0.14 M NaCl, and 2 mM MgCl2. […] of washed platelets are incubated with various concentrations of polypeptide I or buffer as a control for 5 minutes at room temperature and then added to each collagen coated well and incubated at room temperature for 45 minutes. Nonadherent platelets are removed by aspiration, and the wells are rinsed three times with […] of HBS. The number of adhered platelets is determined by protein assay, using the BCA reagent and measuring the absorbance of each well at […].
(§2) Sequence ID Nos. I, II, III, IV and V were evaluated for their ability to block platelet adhesion to collagen using the assay described in Example 2 to determine inhibition of platelet adhesion to collagen. An assay similar to the assay described in Example 2, with the exception that plates are coated with fibrinogen rather than collagen, for determining inhibition of platelet binding to fibrinogen.

[2] = tested on: platelet adhesion to fibrinogen; test: Inhibition of platelet adhesion to fibrinogen-coated plates; assay type: cell-based; design: Percent Inhibition of Adhesion, Fibrinogen, Extent: dose or concentration left out as unconfirmed; settings: for IC50: fibrinogen-coated plates
Procedure: as §1, §2

[3] = tested on: ADP-stimulated platelet aggregation; test: Inhibition of ADP-stimulated platelet aggregation; assay type: cell-based; settings: Table 1
[4] = Preliminary in vivo antithrombotic studies
[5] = molecular target: fibrinogen receptor glycoprotein IIb/IIIa

Question: Which “Inhibition of platelet adhesion to collagen (in words)” value [1] does the source give for “H-ECESGPCCRNCKFLKEGTICKRARGDDMDDYCNGKTCDCPRNPHKGPAT-OH (disulfide 2-11, 7-32, 8-37, 20-39 (inferred)) [Polypeptide I, echistatin]” here?
Answer: The value was “inhibit platelet adhesion to collagen”.

Question: And the “Percent Inhibition of Adhesion, Collagen, Extent” value ([1]; Table 1)?
Answer: The value was 50%.

Question: And the “Decrease of control A562 values (adhered platelets)” value ([1]; concentration dependent, control A562 0.3 to 1.0 O.D.)?
Answer: The value was “up to 50%”.

Question: And the “Percent Inhibition of Adhesion, Fibrinogen, Extent” value ([2]; Table 1, concentration not given)?
Answer: Its value is 95%.

Question: What about the IC50 ([2]; Table 1) of the same substance?
Answer: Its IC50 is 0.27 µM.

Question: What about the IC50 [3] of the same substance?
Answer: Its IC50 is 0.03 µM.

Question: What about the “Antithrombotic effect in vivo” value [4] of the same substance?
Answer: Its value is “very effective antithrombotic agent”.

Question: For “Polypeptide V: NH2 (Ch) Ala Arg Gly Asp (Cy) Z, Z = NH2; 39 amino acids, terminal amino group at Cys 39 (ECESGPCCRNCKFLKEGTICKRARGDDMDDYCNGKTCDC-NH2; not fully specified (bridges); also: terminal modifications Ch, Cy, terminal amino group at Cys 39)”, which IC50 ([1]; Table 1, collagen-coated wells, washed platelets) is on record?
Answer: Its IC50 is 0.53 µM.

Question: What about the “Percent Inhibition of Adhesion, Collagen, Extent” value ([1]; Table 1) of the same substance?
Answer: The value was 58%.

Question: What about the “Specificity for platelet adhesion to collagen (versus fibrinogen)” value ([1]; comparison of Table 1 values) of the same substance?
Answer: Its value is “most specific for platelet adhesion to collagen”.

Question: And the “Percent Inhibition of Adhesion, Fibrinogen, Extent” value [2]?
Answer: The value was 55%.

Question: And the IC50 ([2]; Table 1)?
Answer: Its IC50 is > 8 µM.

Question: What about the IC50 [3] of the same substance?
Answer: The IC50 was 0.8 µM.

Question: What does the source list for “polypeptide I (Sequence ID No. 1), synthetic echistatin”?
Answer: Percent inhibition of adhesion to fibrinogen, Extent [5]: 95%; Percent inhibition of adhesion to collagen, Extent (washed platelets): 50%
